Measured values as given in US4231946A, “14,15-Methylene derivatives of the estrane series and methods for preparing same” (VEB Jenapharm, priority 1978, dated 1980).

What was measured:
[1] = test system: infantile female Wistar rats; experiment: Uterine activity in infantile female Wistar rats; assay type: in vivo, Wistar rat; settings: for Uterine weight (-x): n=10
Text: STS 593 was weaker than ethynylestradiol by a factor of 9 in its estrogenic properties as shown by the Allen-Doisy test in ovariectomized mice. The compound was only 7% as active as the standard mestranol in producing a uterine response in infantile rats (Table 3), whereas the antiestrogenic properties exceeded those of clomiphene citrate by a factor of 1.4.
Comparison of uterine activity in infantile female
Wistar rats produced by STS 593 and mestranol

[2] = in vivo
Text: In this context the compound is better than mestranol by a factor of 6.

## COc1ccc2c(c1)CC[C@@H]1[C@@H]2CC[C@]2(C)[C@@H](O)C[C@H]3C[C@@]312 [STS 593, 3-methoxy-14β,15β-methylene-estra-1,3,5(10)-triene-17β-ol]
[1]; infantile rats
  Uterine response, activity relative to mestranol: 7%
[1]; total dose 0.1 per animal over 3 days p.o.
  Uterine weight (-x): 27.63 mg
[1]; total dose 1.0 per animal over 3 days p.o.
  Uterine weight (-x): 52.40 mg
[1]; total dose 10.0 per animal over 3 days p.o.
  Uterine weight (-x): 75.90 mg
[2]
  Separation of contraceptive activity and undesirable post implantation fetal damage (in words): favorable separation
  Separation of contraceptive activity and undesirable post implantation fetal damage: factor better than mestranol: 6 factor
